Assay results from patent US7812034B2, “Method of using protease inhibitors for the treatment of liposarcomas” (City of Hope, priority 2003, dated 2010).
Like-named read-outs stand apart in the source and are kept apart here.

What was measured:
[1] = tested on: intermediate to high-grade liposarcoma; settings: patients with liposarcoma; cited from earlier work
[2] = tested on: advanced soft tissue sarcomas; settings: patients; cited from earlier work
[3] = humans, cited from earlier work; for Cmax: recommended dose and regimen, read-out: maximum plasma concentration (Cmax)
[4] = cited from earlier work
pre-adipocytes = settings: incubation for 48 hours; cited from earlier work
SREBP-1 [5] = assay: Western blot of SREBP-1 protein in S2 cells; assay type: cell-based, human; settings: 10 μM, FIG. 4
Text: In order to influence transcription, the NH2-terminal domain of SREBP-1 must be proteolytically released from the membrane to enter the nucleus (68 kDa).

S2 liposarcoma cell line = assay: Clonogenic assay, S2 high-grade liposarcoma cells; assay type: cell-based, human; settings: 2.5, 10, 20 μM, 4 hours, FIG. 3
Experimental: A second high-grade liposarcoma cell line, S2 (a kind gift from Dr. Wei Wen, City of Hope Medical Center), was tested for protease inhibitor (PI) therapy for liposarcoma. The purpose of the experiment was to determine whether nelfinavir-mediated inhibition of liposarcoma clonogenicity could be reproduced in S2 cells. As with the SW872 experiment, S2 cells […], indinavir, ritonavir, and saquinavir. […] Colonies (≧40 cells/colony) were scored at 7-10 days with the Eagle Eye II gel documentation system (Stratagene, La Jolla, Calif.). FIG. 3 summarizes the mean and standard deviation of the triplicate colony counts for each experimental condition.

SW872 liposarcoma cells = assay: Clonogenic assay, SW872 liposarcoma cells; assay type: cell-based, human; settings: for concentration that inhibits SW872 liposarcoma clonogenicity (colony growth): 4 hours treatment, 2000 cells plated, colonies scored at 7-10 days, FIG. 1
Experimental: The experimental conditions were intended to bracket these clinically relevant concentrations.
Two thousand treated cells were plated into 60 mm tissue culture plates in triplicate, and colonies (≧40 cells/colony) were scored at 7-10 days with the Eagle Eye II gel documentation system (Stratagene, La Jolla, Calif.). FIG. 1 summarizes the mean and standard deviation of the triplicate colony counts for each experimental condition. […] Ritonavir inhibits colony growth if administered in a concentration of at least 10 μM.
(§1) One thousand treated cells were plated in triplicate in this instance, and colonies were similarly scored.

SREBP-1 [6] = assay: SREBP-1 protein levels in SW872 cells; assay type: cell-based, human
Experimental: In order to influence transcription, the NH2-terminal domain of SREBP-1 must be proteolytically released from the membrane to enter the nucleus (68 kDa). […] Alterations in both SREBP-1 and PPARγ levels have been proposed as the mechanisms underlying of HIV protease-induced lipodystrophy (15-18, 21). To determine whether a similar mechanism is responsible for the observation of nelfinavir-mediated inhibition of liposarcoma clonogenicity, whole cell extracts are prepared from control and nelfinavir-treated SW872 cells for SDS-PAGE electrophoresis. After transfer to polyvinylidene fluoride membranes, the extracts are probed with rabbit polyclonal antibodies to SREBP-1 and PPARγ (Santa Cruz Biotechnology, Santa Cruz, Calif.). Protein detection is performed by ECL using commercially available reagents as per the manufacturer's instructions (Applied Biosystems, Foster City, Calif.). To control for protein-loading, the membranes are stripped and reprobed with antibody to β-actin (Santa Cruz Biotechnology).

[7] = cited from earlier work; remark: listed apart in the source
[8] = tested on: human HT1080 fibrosarcoma cells; assay: Clonogenic assay, HT1080 fibrosarcoma cells; assay type: cell-based; settings: increasing concentrations, 1000 cells plated, FIG. 2
Experimental: as §1

[9] = tested on: differentiated adipocytes; settings: incubation for 48 hours; cited from earlier work
[10] = tested on: human 293 embryonic kidney cells; assay: Clonogenic assay, 293 embryonic kidney cells; assay type: cell-based; settings: increasing concentrations, 1000 cells plated, FIG. 2
Experimental: as §1

Cc1c(C)c2c(c(C)c1O)CCC(C)(COc1ccc(CC3SC(=O)NC3=O)cc1)O2 (centres unmarked) [troglitazone]
toxicity of therapy [1]: negligible

COc1cccc2c1C(=O)c1c(O)c3c(c(O)c1C2=O)C[C@@](O)(C(=O)CO)C[C@@H]3O[C@H]1C[C@H](N)[C@H](O)[C@H](C)O1 [doxorubicin]
response rate [2]: about 25%

Cc1c(O)cccc1C(=O)N[C@@H](CSc1ccccc1)[C@H](O)CN1C[C@H]2CCCC[C@H]2C[C@H]1C(=O)NC(C)(C)C [nelfinavir]
oral bioavailability ([3]; administered with food): 70-80% | Cmax [3]: 6.97 µM | oral bioavailability ([4]; fed rats): 43% | plasma Cmax ([4]; rat, daily gavage 50 mg/kg in 5% dextrose or propylene glycol-water): 1.34 to 1.65 µg/mL | Cmax ([4]; rat, daily gavage 50 mg/kg in 5% dextrose or propylene glycol-water, read-out: plasma Cmax): 2330 to 2870 nM | time plasma levels were maintained after dosing ([4]; rat, oral 50 mg/kg): up to 7 hours | apoptosis in pre-adipocytes (pre-adipocytes): not in pre-adipocytes | SREBP-1 protein (nuclear active and precursor forms) (SREBP-1 [5]): upregulated in a time-dependent fashion | clonogenicity in the S2 liposarcoma cell line (S2 liposarcoma cell line): inhibits clonogenicity | concentration that inhibits SW872 liposarcoma clonogenicity (colony growth) (SW872 liposarcoma cells): ≥ 2.5 µM | colonies in the SW872 cell line (SW872 liposarcoma cells; nelfinavir 20 μM, 1000 cells plated, FIG. 2): marked reduction in colonies | expression of SREBP-1 (SREBP-1 [6]): upregulates expression of SREBP-1 | water solubility [7]: water-soluble | fibrosarcoma (HT1080) clonogenicity [8]: minimally affecting | apoptosis in differentiated adipocytes [9]: induced apoptosis | embryonic kidney (293) clonogenicity [10]: minimally affecting

CC(C)c1nc(CN(C)C(=O)N[C@H](C(=O)N[C@@H](Cc2ccccc2)C[C@H](O)[C@H](Cc2ccccc2)NC(=O)OCc2cncs2)C(C)C)cs1 [ritonavir]
Cmax [3]: 15.5 µM | apoptosis in pre-adipocytes (pre-adipocytes): not in pre-adipocytes | concentration that inhibits SW872 liposarcoma clonogenicity (colony growth) (SW872 liposarcoma cells): at least 10 μM | apoptosis in differentiated adipocytes [9]: induced apoptosis

CC(C)(C)NC(=O)[C@@H]1CN(Cc2cccnc2)CCN1C[C@@H](O)C[C@@H](Cc1ccccc1)C(=O)N[C@H]1c2ccccc2C[C@H]1O [indinavir]
Cmax [3]: 12.5 µM

CC(C)(C)NC(=O)[C@@H]1C[C@@H]2CCCC[C@@H]2CN1C[C@@H](O)[C@H](Cc1ccccc1)NC(=O)[C@H](CC(N)=O)NC(=O)c1ccc2ccccc2n1 [saquinavir]
Cmax [3]: 3.67 µM | apoptosis in pre-adipocytes (pre-adipocytes): not in pre-adipocytes | apoptosis in differentiated adipocytes [9]: induced apoptosis
